Results on three compounds are retold here after PubChem BioAssay AID2060604 (Molecular Pharmacology Branch, DTP, NCI, 2025).

The subject of the experiment is 379773-124-R-J2-PDC complex spheroids, viability % test/control. Description: Anticancer human tumor 379773-124-R-J2-PDC patient-derived endometrial carcinoma cell line growth inhibition [CLK]. To be noted: for viability, T/C: stronger effect = lower value. Put shortly: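 Multi-cell-type spheroids combined patient-derived tumor cells with HUVEC endothelial cells and human mesenchymal stem cells. Paired agents were dosed in half-log steps down from about clinical Cmax, or from 10 microM where Cmax was unknown.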

SMILES strings stand for the structures. Values joined by “and” are separate entries in the source; they are usually repeats but may differ in a detail not shown here. Equal entries are not always repeated.

One may read the IC50 as the midpoint of a concentration-inhibition curve. As a reminder, the viability, T/C is the ratio of treated to control.
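Further: compound exposure lasted seven days before the viability readout.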
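Wherever viability, T/C is given: 100% = DMSO vehicle control wells.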

For `NC(=O)C(=Cn1cnc(-c2cc(C(F)(F)F)cc(C(F)(F)F)c2)n1)c1cncnc1` + CNC(=O)c1ccc(Nc2nc(OC3CCCC3)c3c(-c4ccc5nc(C)oc5c4)c[nH]c3n2)c(OC)c1, the IC50 (curve of first compound, second compound 0.0316 µM) is 38.6 nM; the IC50 (curve of first compound, second compound 0.1 µM) was under 9.49 nM; the IC50 (curve of first compound, second compound 0.316 µM) is under 9.49 nM; the IC50 (curve of first compound, second compound 1 µM) is under 9.49 nM; the IC50 (curve of first compound, second compound 3.16 µM) was under 9.49 nM; the half-inhibitory concentration (IC50) (curve of first compound, second compound 10 µM) was under 9.49 nM. Moreover, the viability, T/C runs as follows: (second compound 0.0316 µM, first compound 0.00949 µM) 72.8%; (second compound 0.0316 µM, first compound 0.03 µM) 57.6%; (second compound 0.0316 µM, first compound 0.0949 µM) 25.4%; (second compound 0.0316 µM, first compound 0.3 µM) 12.7%; (second compound 0.0316 µM, first compound 0.949 µM) 7.15%; (second compound 0.0316 µM, first compound 3 µM) 2.1%. Besides, the viability, T/C (second compound 0.1 µM, first compound 0.00949 µM) is 32.3%; the viability, T/C (second compound 0.1 µM, first compound 0.03 µM) is 29.7%; the viability, T/C (second compound 0.1 µM, first compound 0.0949 µM) is 21.4%; the viability, T/C (second compound 0.1 µM, first compound 0.3 µM) is 12.4%; the viability, T/C (second compound 0.1 µM, first compound 0.949 µM) was 6.65%; the viability, T/C (second compound 0.1 µM, first compound 3 µM) is 2.59%. The viability, T/C was 36.7% (second compound 0.316 µM, first compound 0.00949 µM); 32.8% (second compound 0.316 µM, first compound 0.03 µM); 23.8% (second compound 0.316 µM, first compound 0.0949 µM); 12% (second compound 0.316 µM, first compound 0.3 µM); 5.08% (second compound 0.316 µM, first compound 0.949 µM); 1.7% (second compound 0.316 µM, first compound 3 µM). Moreover, the viability, T/C is 31.9% (second compound 1 µM, first compound 0.00949 µM); 32.6% (second compound 1 µM, first compound 0.03 µM); 20.9% (second compound 1 µM, first compound 0.0949 µM); 10.4% (second compound 1 µM, first compound 0.3 µM); 3.69% (second compound 1 µM, first compound 0.949 µM); 0.49% (second compound 1 µM, first compound 3 µM). The viability, T/C is 30.1% (second compound 3.16 µM, first compound 0.00949 µM); 34.9% (second compound 3.16 µM, first compound 0.03 µM); 18.2% (second compound 3.16 µM, first compound 0.0949 µM); 7.24% (second compound 3.16 µM, first compound 0.3 µM); 2.43% (second compound 3.16 µM, first compound 0.949 µM); 0.24% (second compound 3.16 µM, first compound 3 µM). Also, the viability, T/C is 37.7% (second compound 10 µM, first compound 0.00949 µM); 26.8% (second compound 10 µM, first compound 0.03 µM); 14.3% (second compound 10 µM, first compound 0.0949 µM); 7.07% (second compound 10 µM, first compound 0.3 µM); 2.12% (second compound 10 µM, first compound 0.949 µM); 0.82% (second compound 10 µM, first compound 3 µM).

On to `CC(=O)O[C@H]1C(=O)[C@@]2(C)[C@H]([C@H](OC(=O)c3ccccc3)[C@]3(O)C[C@H](OC(=O)[C@H](O)[C@@H](NC(=O)c4ccccc4)c4ccccc4)C(C)=C1C3(C)C)[C@]1(OC(C)=O)CO[C@@H]1C[C@@H]2O`, for which the viability, T/C was 6.12% and 4.78% (compound 0.0316 µM); 5.31% and 6.44% (compound 0.1 µM); 6.35% and 7.02% (compound 0.316 µM); 6.24% and 5.61% (compound 1 µM); 4.99% and 3.42% (compound 3.16 µM); 6.18% and 4.64% (compound 10 µM). In addition, for the setting “curve of compound”, the half-maximal inhibitory concentration (IC50) was under 31.6 nM.

Turning to `CCN1CCN(Cc2ccc(Nc3ncc(F)c(-c4cc(F)c5nc(C)n(C(C)C)c5c4)n3)nc2)CC1`, the viability, T/C is 87% and 87.5% (compound 0.00316 µM); 81.6% and 73% (compound 0.01 µM); 83.8% and 93.2% (compound 0.0316 µM); 110% and 88.4% (compound 0.1 µM); 89.1% and 101% (compound 0.316 µM); 81% and 78% (compound 1 µM). The 50% inhibitory concentration (IC50) (curve of compound) was over 1000 nM.
